Measurements: PubChem BioAssay (NCI)
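Five compound concentrations were applied to cells in 96-well plates for 48 hours; endpoints were derived by simple linear interpolation of the resulting dose-response curve. TGI: total growth inhibition.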

Tests used:
Assay in all cases: growth of human tumour cells (NCI), 48 h
[1] = test system: 786-0 renal
[2] = test system: A498 renal
[3] = test system: A549 NSCLC
[4] = test system: ACHN renal
[5] = test system: BT-549 breast
[6] = test system: CAKI-1 renal
[7] = test system: CCRF-CEM leukemia
[8] = test system: COLO 205 colon
[9] = test system: DU-145 prostate
[10] = test system: EKVX NSCLC
[11] = test system: HCC-2998 colon
[12] = test system: HCT-116 colon
[13] = test system: HCT-15 colon
[14] = test system: HL-60(TB) leukemia
[15] = test system: HOP-62 NSCLC
[16] = test system: HOP-92 NSCLC
[17] = test system: HS 578T breast
[18] = test system: HT29 colon
[19] = test system: IGROV1 ovarian
[20] = test system: K-562 leukemia
[21] = test system: KM12 colon
[22] = test system: LOX IMVI melanoma
[23] = test system: M14 melanoma
[24] = test system: MALME-3M melanoma
[25] = test system: MDA-MB-231 breast
[26] = test system: MDA-MB-435
[27] = test system: MDA-N
[28] = test system: MOLT-4 leukemia
[29] = test system: NCI-H226 lung
[30] = test system: NCI-H23 lung
[31] = test system: NCI-H460 lung
[32] = test system: NCI/ADR-RES ovarian
[33] = test system: OVCAR-3 ovarian
[34] = test system: OVCAR-4 ovarian
[35] = test system: OVCAR-5 ovarian
[36] = test system: OVCAR-8 ovarian
[37] = test system: PC-3 prostate
[38] = test system: RPMI-8226 leukemia
[39] = test system: RXF 393 renal
[40] = test system: SF-268 CNS
[41] = test system: SF-295 CNS
[42] = test system: SK-MEL-2 melanoma
[43] = test system: SK-MEL-28 melanoma
[44] = test system: SK-MEL-5 melanoma
[45] = test system: SK-OV-3 ovarian
[46] = test system: SN12C renal
[47] = test system: SNB-19 CNS
[48] = test system: SNB-75 CNS
[49] = test system: SW-620 colon
[50] = test system: T-47D breast
[51] = test system: TK-10 renal
[52] = test system: U251 CNS
[53] = test system: UACC-257 melanoma
[54] = test system: UACC-62 melanoma
[55] = test system: UO-31 renal
[56] = test system: NCI-H522 lung
[57] = test system: SF-539 CNS
[58] = test system: SR leukemia

COc1cc(OC)cc(-c2nc3ccccc3c(=O)[nH]2)c1
TGI [1]: 66.2 µM | TGI [2]: 82.2 µM | TGI [3]: > 100000 nM | TGI [4]: > 100000 nM | TGI [5]: > 100000 nM | TGI [6]: > 100000 nM | TGI [7]: > 100 µM | TGI [8]: > 100000 nM | TGI [9]: > 100000 nM | TGI [10]: > 100000 nM | TGI [11]: > 100000 nM | TGI [12]: > 100000 nM | TGI [13]: > 100000 nM | TGI [14]: > 100 µM | TGI [15]: > 100000 nM | TGI [16]: > 100000 nM | TGI [17]: > 100 µM | TGI [18]: > 100000 nM | TGI [19]: > 100 µM | TGI [20]: > 100 µM | TGI [21]: > 100 µM | TGI [22]: > 100000 nM | TGI [23]: > 100000 nM | TGI [24]: > 100000 nM | TGI [25]: > 100 µM | TGI [26]: > 100000 nM | TGI [27]: > 100000 nM | TGI [28]: > 100000 nM | TGI [29]: > 100000 nM | TGI [30]: > 100000 nM | TGI [31]: > 100000 nM | TGI [32]: > 100000 nM | TGI [33]: > 100000 nM | TGI [34]: > 100000 nM | TGI [35]: > 100000 nM | TGI [36]: 63.8 µM | TGI [37]: > 100000 nM | TGI [38]: > 100 µM | TGI [39]: > 100 µM | TGI [40]: > 100000 nM | TGI [41]: > 100000 nM | TGI [42]: > 100000 nM | TGI [43]: > 100 µM | TGI [44]: > 100000 nM | TGI [45]: 62.8 µM | TGI [46]: > 100000 nM | TGI [47]: > 100000 nM | TGI [48]: 58.3 µM | TGI [49]: > 100 µM | TGI [50]: > 100000 nM | TGI [51]: > 100000 nM | TGI [52]: > 100000 nM | TGI [53]: > 100000 nM | TGI [54]: > 100000 nM | TGI [55]: > 100000 nM

CC(=O)O[C@H]1CC[C@]2(C=O)[C@H]3CC[C@]4(C)[C@@H](C5=CC(=O)OC5)CC[C@]4(O)[C@@H]3CC[C@]2(O)C1
TGI [2]: 1.16 µM | TGI [3]: 253 nM | TGI [4]: 557 nM | TGI [5]: 575 nM | TGI [6]: 60 nM | TGI [7]: > 31.6 µM | TGI [8]: 1640 nM | TGI [9]: 391 nM | TGI [10]: 615 nM | TGI [11]: 1330 nM | TGI [12]: 500 nM | TGI [13]: 455 nM | TGI [14]: 5.18 µM | TGI [15]: 833 nM | TGI [16]: 2760 nM | TGI [17]: > 100 µM | TGI [18]: 1050 nM | TGI [19]: 3.99 µM | TGI [20]: > 100 µM | TGI [22]: 933 nM | TGI [23]: 1220 nM | TGI [24]: 566 nM | TGI [25]: 3.14 µM | TGI [26]: 984 nM | TGI [27]: 970 nM | TGI [28]: 79.8 nM | TGI [29]: 1970 nM | TGI [30]: 373 nM | TGI [31]: 274 nM | TGI [56]: 357 nM | TGI [32]: 467 nM | TGI [33]: 622 nM | TGI [34]: 350 nM | TGI [35]: 1870 nM | TGI [36]: 1.01 µM | TGI [37]: 1380 nM | TGI [38]: 3.21 µM | TGI [40]: 806 nM | TGI [41]: 853 nM | TGI [57]: 260 nM | TGI [42]: 1080 nM | TGI [43]: 3.22 µM | TGI [44]: 473 nM | TGI [45]: 0.802 µM | TGI [46]: 1530 nM | TGI [47]: 2240 nM | TGI [58]: > 100 µM | TGI [49]: 4.85 µM | TGI [50]: 2680 nM | TGI [51]: 930 nM | TGI [52]: 559 nM | TGI [53]: 1630 nM | TGI [54]: 1100 nM | TGI [55]: 1480 nM
